Results taken from patent US20090252704A1, “THERAPIES FOR COGNITION AND LEARNING ENHANCEMENT” (priority 2008, published 2009).

Assays:
scopolamine treated mice = assay: step through passive avoidance (STPA) in scopolamine treated mice; assay type: in vivo, Male C57BL/6 mice
From the text: Male C57BL/6 mice weighing 20-25 g (6-8 weeks of age) were maintained in a controlled environment (housed at 5 per cage; at 22-25 C.°; 12/12 light/dark cycle) and allowed to acclimate 2 weeks before initiation of the STPA task. The STPA apparatus consists of a box with two compartments light and dark; each of 20×9.5×16.5 cm^3 (Ugo Basile Rat Passive Avoidance Apparatus, customized for mice with chamber inserts). Mice were transported to the testing facility in covered cages and whilst in training or testing phases were housed at 1 or 2 per cage.
STPA Habituation phase: Mice are placed in the light compartment and latency to enter the dark compartment is recorded. The criteria of success is entrance to the dark compartment within 30 sec twice in three trails or three times in five trials; showing the normal aversion of mice to a highly lit space.
STPA Training phase: In acute drug testing, 2 hrs after habituation is complete; 30 min (t=−30) and 20 min (t=−20) prior to training, scopolamine (or saline) and test drug (or vehicle), respectively, are administered. In the drinking water protocol, at t=−30 prior to training, scopolamine (or saline) is administered. Mice are placed into the light compartment at time zero. Upon entry into the dark compartment, an automatic door closes and 2.0 sec shock (0.5 mA) is delivered through the floor grating. […] The number of trials to reach criterion is recorded for assessment of secondary biomarkers, such as analgesia.
STPA Testing phase: At 24 h and 48 h post training, animals are tested for memory retention without any drug administration. The animals are again placed in the light compartment. Latency to enter the dark side is recorded as a measure of memory consolidation, retention and retrieval.
Scopolamine (1 mg/kg; 1 mg/4 ml) is administered ip. Test compound (1 mg/kg, 1 mg/Kg) administered ip.
Dosing—Behavioral Studies: Drugs and vehicle were administered either i.p. for acute studies (1 mg/kg, or as indicated in the figures, in saline), otherwise in drinking water (20 mg/kg/day).
Drinking water dosing: Rodents drink continuously during the active dark cycle and intermittently during the resting light cycle.

[1] = tested on: animal models of chronic learning and cognition impairment; assay: animal models of chronic learning and cognition impairment; assay type: in vivo; details: chronic use

Compound | reversal of cognition deficits, comparison (FIG. 4) (scopolamine treated mice; STPA, scopolamine treated mice) | cognition deficit reversal (FIG. 1, FIG. 2 and FIG. 3) (scopolamine treated mice; in drinking water (20 mg/kg/day), STPA, scopolamine 1 mg/kg ip) | effect on learning and cognition [1] | reversal of cognition deficits, comparison (FIG. 4) (scopolamine treated mice; mouse, in vivo)
Cc1ncsc1CCO[N+](=O)[O-].Cl [GT-1061, 4-methyl-5-(2-nitroxyethyl)thiazole HCl] | reversal of cognition deficits | cognition deficit reversal | – | –
O=[N+]([O-])O[C@H]1CO[C@H]2[C@@H]1OC[C@H]2O[N+](=O)[O-] [ISDN, isosorbide dinitrate] | reversal of cognition deficits | – | enhance learning and cognition | –
Cc1ncsc1CCCl [clomethiazole] | – | – | – | reversal of cognition deficits
